Reference: patent US20140128352A1, “COMPOUNDS AND METHODS FOR MODULATING MITOCHONDRIAL METABOLISM AND REACTIVE OXYGEN SPECIES PRODUCTION” (Buck Institute for Research on Aging, priority 2012, published 2014)
“Also recorded” adds a separate entry of the source. Read-outs that look alike come from different tables or passages of the source.

Tests used:
[1] = system: mitochondrial membrane potential (ΔΨm); experiment: Membrane potential (ΔΨm) counterscreen with TMRM; conditions: malate, nigericin
[2] = system: site IQ; experiment: Retest of IQ ROS production (expanded microplate panel / cuvette); type: biochemical, rat; conditions: retest; subsaturating (0.5 mM) succinate
Protocol: Compounds identified as site-selective hits as well as structural analogs were re-sourced from ChemBridge and dissolved in DMSO as 80 mM stocks. Master Titration Plates were prepared manually by serially diluting 80 mM compound stocks between 0.08 and 80 mM on 96-well microplates. Four compounds were titrated in duplicate on each plate. Additional DMSO controls were interspersed across these plates to serve as local normalization controls during analysis since two-way median polishing was not appropriate. Just prior to use, compounds were diluted 100-fold with standard buffer (10X). The same known inhibitor positive controls were included on each plate as during high-throughput screening.
The five core ROS assays and single ΔΨm assay were carried out as in the initial high-throughput screen. In addition, several assays were included to help validate the specificity of the compounds for a given site of production. All compounds were titrated against separate assays targeting IQ ROS and IIIQo ROS using subsaturating (0.5 mM final) succinate. […] Specifically, ΔΨm was monitored separately with 5 mM succinate (in the presence of 4 μM rotenone) in addition to glutamate and malate as before. The use of different substrates was designed to reveal compounds that disrupt mitochondrial function in a substrate specific manner.
Most frequently, these changes involved the use of different substrates to supply electrons from an alternative entry point in the chain. If a site of ROS production is being targeted selectively by a compound, then in many cases the supply of electrons should not influence the effectiveness of this compound at suppressing ROS production. […] Alternative conditions are listed below: • 1) IQ ROS: 5 mM succinate with 1 mM glutamate • 2) IF ROS: 5 mM malate only as substrate (in the presence of 4 μM rotenone) • 3) IIIQo ROS: 5 mM succinate (in the presence of 3 mM malonate, 4 uM rotenone, and 2.5 μM antimycin A) • 4) IIIQo ROS: 25 mM glycerol phosphate (in the presence of 1 mM malonate, 4 μM rotenone, and 2.5 μM antimycin A) • 5) SDH: 0.5 mM succinate (in the presence of 4 uM rotenone, 2.5 uM antimycin A, and 2 μM myxothiazol) • 6) GPDH: Vary the concentration of glycerol phosphate in the presence or absence of 250 nM free calcium to allosterically activate GPDH (all in the presence of 4 μM rotenone, 2.5 uM antimycin A, 1 mM malonate, and 2 μM myxothiazol) • 7) ΔΨm: Vary the concentration of glycerol phosphate in the presence or absence of 250 nM free calcium to allosterically activate GPDH and in the presence or absence of 80 ng/mL nigericin (all in the presence of 4 μM rotenone)
The fluorescence values in each well were scaled in relation to the intra-plate DMSO and known inhibitor controls as in the high-throughput screen except that median values for local interspersed DMSO wells (3-6 wells) were used rather than just the 8 DMSO wells in columns 1 and 12. This normalization was applied in place of the two-way median polish used during high-throughput screening to minimize row and column effects. […] At this stage, strong candidates were not necessarily excluded from further testing if subtle off-target effects were observed (e.g. loss of specificity or signs of general inhibition at the highest concentrations). Rather, these candidates were often pursued for more detailed mechanistic studies with the expectation that subsequent structure activity analysis would provide insight into which structurally related compounds would provide the optimal specificity for a given site of production.
Candidate compounds that remained site-selective following robotics assisted retesting were subsequently tested for effects on ROS production and ΔΨm with a Varian Cary Eclipse fluorimeter (excitation 550 nm, emission at 590 nm). This experimental format allows kinetic measurements of ROS production and ΔΨm with more accurate temperature control, sample stirring, and background correction. […]

[3] = biological target: T1, glycerol-3-phosphate dehydrogenase (GPDH) (Rattus norvegicus, UniProt P35571); experiment: High-throughput screen: ROS production from glycerol-3-phosphate dehydrogenase (GPDH); type: biochemical; design: inhibition: dose or concentration left out as unconfirmed; conditions: for inhibition / GPDH: percent change in ROS from DMSO controls; for inhibition at 2.5 µM: Table 6, 25 mM glycerol phosphate, rotenone, antimycin A, malonate, myxothiazol, compounds 2.5 μM, scaled to IQ positive controls, read-out: % Reduction in ROS Production (GPDH)
T1 construct: The activity of GPDH in intact mitochondria (0.3 mg/mL) was measured; from tissue; host or cells: rat skeletal muscle mitochondria (Wistar, Harlan Laboratories)
T1 sequence (P35571 43-727): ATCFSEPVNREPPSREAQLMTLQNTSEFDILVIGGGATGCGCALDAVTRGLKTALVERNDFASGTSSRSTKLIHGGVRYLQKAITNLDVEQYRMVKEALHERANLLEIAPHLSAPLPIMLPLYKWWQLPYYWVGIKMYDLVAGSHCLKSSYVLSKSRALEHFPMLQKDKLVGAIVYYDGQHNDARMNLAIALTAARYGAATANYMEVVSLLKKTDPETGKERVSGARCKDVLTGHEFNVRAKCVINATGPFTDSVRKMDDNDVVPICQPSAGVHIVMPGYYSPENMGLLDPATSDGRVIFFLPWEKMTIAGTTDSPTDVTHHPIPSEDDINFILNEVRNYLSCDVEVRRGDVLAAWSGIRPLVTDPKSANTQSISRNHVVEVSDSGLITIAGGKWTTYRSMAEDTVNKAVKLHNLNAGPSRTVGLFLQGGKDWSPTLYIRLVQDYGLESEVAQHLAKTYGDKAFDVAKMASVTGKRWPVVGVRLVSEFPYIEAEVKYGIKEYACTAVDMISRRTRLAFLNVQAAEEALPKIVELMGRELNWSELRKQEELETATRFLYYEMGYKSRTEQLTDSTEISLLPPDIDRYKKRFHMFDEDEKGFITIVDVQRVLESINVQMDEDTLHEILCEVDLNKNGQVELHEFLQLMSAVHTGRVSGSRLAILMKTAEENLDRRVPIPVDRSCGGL

[4] = system: ubiquinone binding site of complex I (IQ); experiment: High-throughput screen: ROS production from ubiquinone binding site of complex I (IQ), isolated skeletal muscle mitochondria; type: biochemical, rat; conditions: for IQ: percent change in ROS from DMSO controls; for % Reduction in ROS production (IQ): Table 2, 5 mM succinate, compounds 2.5 μM, percent change from DMSO, positive control −100%
[5] = biological target: T2, outer ubiquinone binding site of complex III (IIIQO) (Rattus norvegicus, UniProt P00159+P20788); experiment: High-throughput screen: ROS production from outer ubiquinone binding site of complex III (IIIQO); type: biochemical
T2 construct: freshly isolated muscle mitochondria were assayed; from tissue; host or cells: rat skeletal muscle mitochondria (Wistar, Harlan Laboratories)

[6] = biological target: T3, flavin binding site of complex I (IF) (Rattus norvegicus, UniProt Q5XIH3); experiment: High-throughput screen: ROS production from flavin binding site of complex I (IF); type: biochemical
T3 construct: freshly isolated muscle mitochondria were assayed; from tissue; host or cells: rat skeletal muscle mitochondria (Wistar, Harlan Laboratories)
T3 sequence (Q5XIH3 21-464 limits assumed, one chain of several): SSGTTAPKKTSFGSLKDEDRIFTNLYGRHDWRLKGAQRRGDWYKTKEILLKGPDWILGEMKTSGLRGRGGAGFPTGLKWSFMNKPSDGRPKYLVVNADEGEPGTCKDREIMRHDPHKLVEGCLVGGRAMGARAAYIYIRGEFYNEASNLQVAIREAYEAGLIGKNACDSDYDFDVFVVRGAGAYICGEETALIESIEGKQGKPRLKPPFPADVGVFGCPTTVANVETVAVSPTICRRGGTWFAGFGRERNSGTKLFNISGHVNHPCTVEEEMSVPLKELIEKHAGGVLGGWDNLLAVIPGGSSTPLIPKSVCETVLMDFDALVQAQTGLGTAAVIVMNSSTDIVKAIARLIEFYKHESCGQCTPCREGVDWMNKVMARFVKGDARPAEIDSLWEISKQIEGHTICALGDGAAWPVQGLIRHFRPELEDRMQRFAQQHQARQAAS

[7] = biological target: T4, succinate dehydrogenase/complex II (SDH) (Rattus norvegicus, UniProt P21913+Q641Z9+Q6PCT8+Q920L2); experiment: High-throughput screen: ROS production from succinate dehydrogenase/complex II (SDH); type: biochemical; conditions: for inhibition at 2.5 µM / SDH: percent change in ROS from DMSO controls; for % Reduction in ROS Production (SDH): Table 5, 15 μM palmitoyl carnitine, 2.5 μM antimycin A, 2 μM myxothiazol, compounds 2.5 μM, percent change from DMSO
T4 construct: freshly isolated muscle mitochondria were assayed; from tissue; host or cells: rat skeletal muscle mitochondria (Wistar, Harlan Laboratories)
T4 sequence (Q920L2 35-656): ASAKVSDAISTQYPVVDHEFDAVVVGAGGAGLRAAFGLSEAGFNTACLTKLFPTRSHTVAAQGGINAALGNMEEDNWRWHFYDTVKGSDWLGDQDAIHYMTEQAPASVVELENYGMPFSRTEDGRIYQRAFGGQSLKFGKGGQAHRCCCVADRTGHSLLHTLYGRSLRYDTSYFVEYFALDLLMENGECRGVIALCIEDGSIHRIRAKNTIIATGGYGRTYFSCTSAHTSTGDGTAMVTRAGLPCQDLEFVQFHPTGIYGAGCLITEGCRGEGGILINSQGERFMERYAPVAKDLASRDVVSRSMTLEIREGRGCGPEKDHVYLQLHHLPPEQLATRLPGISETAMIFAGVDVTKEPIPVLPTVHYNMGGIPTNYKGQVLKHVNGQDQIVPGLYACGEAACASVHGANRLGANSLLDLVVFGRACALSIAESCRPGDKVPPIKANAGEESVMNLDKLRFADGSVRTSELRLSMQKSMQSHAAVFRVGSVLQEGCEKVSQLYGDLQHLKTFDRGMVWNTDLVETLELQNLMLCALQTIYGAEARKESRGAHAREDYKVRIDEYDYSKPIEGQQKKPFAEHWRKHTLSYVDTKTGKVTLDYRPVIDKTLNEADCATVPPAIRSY
T4 sequence (P21913 31-282): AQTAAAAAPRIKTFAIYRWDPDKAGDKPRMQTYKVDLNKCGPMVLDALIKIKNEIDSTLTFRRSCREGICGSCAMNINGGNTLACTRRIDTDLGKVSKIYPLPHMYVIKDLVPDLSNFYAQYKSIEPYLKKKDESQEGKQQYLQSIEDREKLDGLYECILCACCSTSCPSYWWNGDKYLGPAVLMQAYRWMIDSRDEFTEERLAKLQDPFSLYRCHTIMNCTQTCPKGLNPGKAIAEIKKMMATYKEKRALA
T4 sequence (Q641Z9 30-169 limits assumed): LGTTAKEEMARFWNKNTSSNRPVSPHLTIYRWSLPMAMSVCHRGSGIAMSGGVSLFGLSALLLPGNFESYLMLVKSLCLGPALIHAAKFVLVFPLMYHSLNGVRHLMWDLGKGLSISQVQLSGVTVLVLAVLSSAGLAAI
T4 sequence (Q6PCT8 57-159): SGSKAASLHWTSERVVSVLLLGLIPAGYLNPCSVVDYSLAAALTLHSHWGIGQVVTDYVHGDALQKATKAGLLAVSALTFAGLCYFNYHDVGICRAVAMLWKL
Protocol: Skeletal muscle mitochondria were isolated from 5-8 week old female Wistar rats (Harlan Laboratories). Minced muscle was homogenized in buffer containing bacterial protease Type VIII prior to differential centrifugation to separate mitochondria from other tissue components. Unless otherwise stated, freshly isolated muscle mitochondria were assayed in buffer containing 120 mM KCl, 5 mM HEPES, 1 mM EGTA, 0.3% (w/v) bovine serum albumin. Where indicated, CaCl2 was added to yield a final free concentration of 250 nM calcium at pH 7.0 at 37° C.
Just prior to use, plates were brought to room temperature and diluted 300-fold with standard buffer (13.3X=33.3 μM). To monitor the performance of each assay throughout screening and to provide intra-plate normalization reference points, DMSO negative controls and known mitochondrial inhibitor positive controls were included on each Master compound plate.
Total amounts of superoxide and H2O2 production were determined fluorometrically as H2O2, without distinguishing between them, in the presence of exogenous superoxide dismutase (25 units/mL final), horseradish peroxidase (1 unit/mL final), and Amplex UltraRed (25 μM final) as described (Affourtit, C. et al. (2012) Measurement of proton leak and electron leak in isolated mitochondria. Methods Mol. Biol. 810: 165-82). Just prior to use, a bulk 3.3X solution was made in standard buffer and distributed into a 2 mL deep well 96-well transfer plate.
To assess the effects of a compound on ROS production from succinate dehydrogenase/complex II (SDH), Start Solution containing 15 μM palmitoyl carnitine, 2.5 μM antimycin A and 2 μM myxothiazol was distributed into standard 96-well transfer plates. A Biomek FX workstation was programmed to dispense solutions into black 96-well assay plates. Solutions were dispensed to all assay plates in the following order: ROS Detection solution described in Example 3, Mitochondria solution described in Example 1 to a final concentration of 0.3 mg/ml, and Compound dilutions described in Example 2. Duplicate assay plates were made and each was initiated by the addition of 3.3X Start solution containing 15 μM palmitoyl carnitine, 2.5 μM antimycin A and 2 μM myxothiazol. Plates were incubated in the dark at room temperature for 30-40 minutes before acquiring endpoint fluorescence using a Victor 3V plate reader (Perkin Elmer) equipped with 550/590 nm excitation/emission filters.
The fluorescence values in each well were scaled as the percent change from the intra-plate DMSO controls with the appropriate inhibitor positive controls defined as −100%. Following initial scaling, intra-plate normalized values were subjected to Tukey's two-way median polish to remove row and column dependent positional effects (Malo et al., 2006).

[8] = Table 8, percent change in ROS from DMSO controls
[9] = Table 3, 5 mM glutamate, 5 mM malate, 4 μM rotenone, compounds 2.5 μM, percent change from DMSO, positive control −100%, read-out: % Reduction in ROS production (IF)
[10] = Table 9, percent change in ROS from DMSO controls
[11] = Table 8, percent change in ROS from DMSO controls, read-out: IIIQO
[12] = Table 8, percent change in ROS from DMSO controls, read-out: IF
[13] = Table 4, 5 mM succinate, 4 μM rotenone, 2.5 μM antimycin A, compounds 2.5 μM, percent change from DMSO, read-out: % Reduction in ROS production (IIIQO)
[14] = Table 7, percent change in ROS from DMSO controls

SMILES	GPDH ([3]; Table 8)	IIIQO [5, 8]	SDH ([7]; Table 8)	inhibition ([3]; Table 8) [%]	inhibition at 2.5 µM [5, 11] [%]	inhibition at 2.5 µM ([7]; Table 8) [%]	inhibition at 2.5 µM [5, 13] [%]	ΔΨm ([1]; Table 8, glutamate)	IQ ([4]; Table 8)	inhibition at 2.5 µM [6, 9] [%]	IF [6, 8]	% Reduction in ROS production (IQ) [4] [%]	inhibition at 2.5 µM [6, 12] [%]	also measured
CN(C)CCN(Cc1ccccc1)Cc1ccc(C(F)(F)F)cc1 [Compound 29]	−2.4	−3.2	−0.1	–	–	–	–	−0.6	−2.1	18.1	−18.1	–	–	ΔΨm ([1]; Table 9, glutamate): −0.6; effect on IQ ROS with subsaturating substrate [2]: strong effects on IQ ROS with subsaturating substrate; also recorded: stronger off-target effects on IQ ROS when driven by low concentration succinate; inhibition ([3]; Table 7): 2.4%; GPDH ([3]; Table 9): −2.4; IQ ([4]; Table 7): −2.1; IQ ([4]; Table 9): −2.1; inhibition at 2.5 µM ([5]; Table 7, percent change in ROS from DMSO controls, read-out: IIIQO): 3.2%; inhibition at 2.5 µM ([5]; Table 9, percent change in ROS from DMSO controls, read-out: IIIQo): 3.2%; inhibition at 2.5 µM ([6]; Table 7, percent change in ROS from DMSO controls, read-out: IF): 18.1%; IF [6, 10]: −18.1; inhibition at 2.5 µM ([7]; Table 7): 0.1%; SDH ([7]; Table 9): −0.1
O=C(Nc1nn[nH]n1)C1CCCCC1 [Compound 76]	–	–	–	0	0	-3	–	0	−24	34	–	−24	34	–
c1ccc(C2CCC(Nc3ccc4c(c3)OCO4)CC2)cc1 (stereo not drawn) [Compound 77]	–	–	–	-1	15	0	15	1	−18	–	–	−18	6	–
Clc1ccc(C(NC2CCN(Cc3ccccc3)CC2)c2ccccc2)cc1 (stereo not drawn) [Compound 78]	–	–	–	6	30	5	30	−1	2	37	–	–	37	–
CCC1CCCCN1C/C=C/c1ccc(N(C)C)cc1 (stereo not drawn) [Compound 80]	–	–	–	11	12	-4	12	0	0	23	–	–	23	inhibition at 2.5 µM [3]: 11%
CN(C)c1ccc(C(=C2CN3CCC2CC3)c2ccc(N(C)C)cc2)cc1 [Compound 81]	–	–	–	13	0	1	–	−1	2	–	–	–	49	–
Clc1ccc(N2CCN(CC(c3ccccc3)c3ccccc3)CC2)cc1 [Compound 83]	–	–	–	3	29	14	29	1	2	–	–	–	1	% Reduction in ROS Production (SDH) [7]: −14%

Further lines, with some results ahead:

GPDH ([3]; Table 8)	IIIQO [5, 8]	SDH ([7]; Table 8)	inhibition ([3]; Table 8) [%]	inhibition at 2.5 µM [5, 11] [%]	inhibition at 2.5 µM ([7]; Table 8) [%]	inhibition at 2.5 µM [5, 13] [%]	SMILES	ΔΨm ([1]; Table 8, glutamate)	IQ ([4]; Table 8)	inhibition at 2.5 µM [6, 9] [%]	IF [6, 8]	% Reduction in ROS production (IQ) [4] [%]	inhibition at 2.5 µM [6, 12] [%]	also measured
–	–	–	16	-3	22	–	COc1ccc(NC(=S)NC(=O)c2ccco2)cc1 [Compound 75]	−2	−50	83	–	−50	83	inhibition at 2.5 µM [3]: 16%; % Reduction in ROS Production (SDH) [7]: −22%
0	−10	−35	–	–	–	–	Cc1cc(OCC(O)CN(Cc2ccccc2)C(C)(C)C)ccc1[N+](=O)[O-] (stereo not drawn) [Compound 82]	0	−2	–	−34	–	–	% Reduction in ROS production (IF) ([6]; Table 3, 5 mM glutamate, 5 mM malate, 4 μM rotenone, compounds 2.5 μM, percent change from DMSO, positive control −100%): −34%; % Reduction in ROS Production (SDH) [7]: −35%
−0.2	0.8	0.7	–	–	–	–	O=[N+]([O-])c1ccc(Oc2ccc(S(=O)(=O)Nc3ccc(F)cc3)cc2)cc1 [Compound 84]	−1.5	−47.7	–	−1.4	−47.7	–	ΔΨm ([1]; Table 9, glutamate): −1.5; GPDH ([3]; Table 7): −0.2; GPDH ([3]; Table 9): −0.2; IQ ([4]; Table 7): −47.7; IQ ([4]; Table 9): −47.7; IIIQO [5, 14]: 0.8; IIIQO [5, 10]: 0.8; IF [6, 14]: −1.4; IF [6, 10]: −1.4; SDH ([7]; Table 7): 0.7; SDH ([7]; Table 9): 0.7
−3.3	−0.8	3.6	–	–	–	–	O=[N+]([O-])c1ccc(Oc2ccc(S(=O)(=O)Nc3ccc4c(c3)OCCO4)cc2)cc1 [Compound 85]	−0.9	−50.6	–	0.5	−50.6	–	ΔΨm ([1]; Table 9, glutamate): −0.9; GPDH ([3]; Table 7): −3.3; GPDH ([3]; Table 9): −3.3; IQ ([4]; Table 7): −50.6; IQ ([4]; Table 9): −50.6; IIIQO [5, 14]: −0.8; IIIQO [5, 10]: −0.8; IF [6, 14]: 0.5; IF [6, 10]: 0.5; SDH ([7]; Table 7): 3.6; SDH ([7]; Table 9): 3.6
